From US7655392B2, “Quenching methods for red blood cell inactivation process” (priority 2004, dated 2010) come the findings set out here.

The structures appear in SMILES notation. Read-outs that look alike come from different tables or passages of the source.

Data set [1] in a line: pH of quencher stock and of RBC mixture. The note with it: for pH of stock quencher: room temperature. It counts as physicochemical. Here is the method:
The effect of various quenching conditions on the pH of a red blood cell composition was determined for various treatment conditions. The quencher solutions were prepared at a concentration of 600 mM in 8% dextrose monohydrate. […] Glutathione was assessed at 2 mM (acidic) or 20 mM (2 eq. of base). […] The pH of the quencher solution, either unmodified or neutralized, was measured using a standard Epoxy Calomel electrode (Beckman Instruments) at room temperature. […] The samples were mixed and the pH at room temperature was measured using the same electrode as described above.
In these, the appropriate amount of 600 mM stock was added, mixed with an appropriate volume of 8% dextrose to provide the same volume addition to each RBC sample where in one study, with varied glutathione concentrations, the pH was measured after adding glutathione and after adding PIC-1. […] Similar samples were also assessed for the inactivation of S. epidermidis. […] For gel card analysis, after incubation, the RBC were washed in BBS and were diluted in BBS to a final hematocrit of 4%. A 25 μL aliquot of each was mixed with 15 μL of rabbit polyclonal anti-acridine sera diluted either 1:4 or 1:100 in BBS and the mixture was incubated at 37° C. for 30 minutes. The cells were subsequently washed with 1.5 mL BBS. After washing was complete, the cells were mixed with goat anti-rabbit Fab′2 fragment anti H+L chains (1:4 dilution in PBS) and incubated at 37° C. for 30 minutes.

Data set [2] deals with Serratia marcescens. It counts as cell-based. The note with it: Table 5B: 20 mM Cys+2 eq base only, no PIC-1.
Data set [3] deals with red blood cells. In kind it is cell-based. The note with it: 20 mM Cys+2 eq NaOH only, no PIC-1. How it is done:
In another assay, the rabbit polyclonal sera may be reacted with treated red blood cells. After washing off unbound antibody, a FITC labeled goat anti-rabbit Fab′2 fragment (anti H+L chains, Caltag) is added. The binding of FITC label to the red blood cells correlates with the amount of acridine bound to the red blood cell surface, and is assessed by FACScan™ analysis (Becton, Dickinson and Co., NJ). The relative modification of the red blood cells is determined from the FACScan™ mean fluorescence value.
A 20 mL sample of leukoreduced whole blood (Blood Source, Sacramento, Calif.) was centrifuged at 4,100×g for 5 minutes at room temperature in each of four 50 mL centrifuge tubes. The supernatant was removed from each tube to provide red cell concentrate (RCC). […] For each washed RCC, cells were resuspended in 5 mL of the solution used for washing. This is now referred to as the RBC test sample. […] These samples were incubated for 20 hours at room temperature. After incubation, the RBC were washed in BBS (Blood Bank Saline, 0.9% saline, unbuffered, Fisher Scientific) and were diluted to a final hematocrit of 4%. A 25 μL aliquot of each was mixed with 15 μL of rabbit polyclonal anti-acridine sera diluted 1:100 in BBS and the mixture was incubated at 37° C. for 30 minutes. The cells were subsequently washed with 1.5 mL BBS. After washing was complete, the cells were mixed with 50 μL of FITC labeled goat anti-rabbit Fab′2 fragment (1:64 dilution in BBS) and incubated at 37° C. for 30 minutes. […] Note that the quenching improves as glutathione is neutralized with increasing amounts of sodium hydroxide.
The FACScan analysis of the binding of rabbit anti-acridine sera to treated red cells was used to assess a variety of quenching conditions. […] The tables represent data from two different experiments, each with samples treated under standard conditions or with 20 mM neutralized glutathione. […] The data within an experiment provides the relative efficacy of the various treatments. Because the assay may depend on the lot of red blood cells used, the absolute values of mean fluorescence may vary from one study to the next, such that relative values should only be compared within a given experiment. […] Neutralized glutathione at 20 mM results in close to background levels.
An untreated control sample as well as a standard sample (co-addition of 2 mM acidic glutathione with 0.2 mM PIC-1) were also assessed.
Full units of red cell concentrates (Interstate Blood Bank, Inc., Memphis, Tenn.) were leukoreduced. A volume of 200 mL of this RCC (80% hematocrit) was mixed with 94 mL of Erythrosol or 100 mL of Adsol (Baxter Healthcare Corp., Deerfield, Ill.) as control (unit 1). A volume of 20 mL 8% dextrose was used to dissolve PIC-1 (mg) and acid glutathione (mg) and added to one unit to provide 0.2 mM PIC-1 and 2 mM glutathione (unit 2). […] For the glutathione, 1.2 mL of 10 N NaOH was added (2 equivalents). The PIC-1 was mixed with the unit, followed 1 minute later (unit 3) or 5 minutes later (unit 4) by glutathione. For unit 5, neutralized glutathione was mixed first, followed 10 minutes later by the PIC-1. […] All units were mixed by grasping the ends of the blood bag and mixing in a FIG. 8 motion 30 times. These were then incubated at room temperature for 20 hours total. A compound adsorption device (CAD), comprising a polymeric resin contained within a mesh pouch, was used for all but the control sample. This device is intended to remove residual PIC-1, PIC-1 breakdown products, and glutathione from the samples. Samples were incubated for 8 hours, then transferred to a second blood bag containing the CAD and incubated for an additional 12 hours. Following the room temperature incubation, samples were transferred to a refrigerator (4° C.) and stored up to 43 days.

Data set [4] relates to Staphylococcus epidermidis. Description: Inactivation of Staphylococcus epidermidis in RBC (colony count). The note with it: Table 5C: 20 mM cysteine+1 eq base only, no PIC-1.
Procedure: Whole blood (Blood Source, Sacramento, Calif.) was used to prepare a red blood cell (RBC) composition by centrifuging to provide packed RBC (34 mL of approximately 90% hematocrit), then adding 17 mL Erythrosol to a hematocrit of approximately 60%. Erythrosol is a red blood cell additive (Baxter Healthcare Corp., Deerfield, Ill.) that may be prepared by combining sodium citrate dihydrate (7.82 g); sodium acid phosphate dihydrate (0.73 g); sodium phosphate dihydrate (3.03 g); adenine (0.22 g); mannitol (7.74 g); and glucose (9 g) in 1 liter of distilled water. The bacterial preparation was then added ( 1/100th of the total volume) to the RBC/Erythrosol to provide contaminated RBC. The contaminated RBC was divided into several samples and treated according to Table 2, where PIC-1 is β-alanine, N-(acridin-9-yl), 2-[bis(2-chloroethyl)amino]ethyl ester. The PIC-1 and glutathione (Aldrich, St. Louis, Mo.) were dissolved in a solution of 8% dextrose monohydrate at about 15× the desired concentration in the final red blood cell composition when added together, or 30× when added separately. […] For separate addition using 20 mM neutralized glutathione, PIC-1 is prepared by dissolving 7.6 mg in 2.5 mL of 8% dextrose, glutathione is prepared by dissolving 460 mg in 1.9 mL of 8% dextrose and mixing with 0.6 mL of 5N NaOH, then adding 165 μL of each solution to 4.67 mL RBC in the appropriate order. Following treatment, the samples were incubated for 2 hours, and 100 μL of each was serially diluted and plated on LB plates. These were incubated overnight at 37° C. in order to assess bacterial growth. The bacterial titer was determined by counting colonies on the plates and based on the dilution of the plate, the titer was determined. For example, with 10-fold serial dilutions, 30 colonies counted on the 5th dilution of the original solution, where 0.1 mL are plated, would indicate an initial titer of (30×10^5)/0.1=3×10^7, or 7.47 log. […] Note that for most samples in Table 2A the PIC-1 and glutathione were formulated together. […] The study was repeated with sequential addition of the two components, as indicated in Table 2B (time delay of 0 indicates they were added in the same solution).
Additional studies were done using S. epidermidis, where the overnight culture was used without dilution. […] PIC-1 is at 0.2 mM in all samples.
For these samples, the NaOH stock was prepared at 10N and appropriate volumes of the various components were used following the procedures above. Standard conditions and/or 20 mM neutralized glutathione (GSH) were run for comparison.
Where [5] appears, read: 600 mM in 8% dextrose + 1 eq. base.
Where [6] appears, read: Table 10: RBC + 20 mM quencher + 1 eq. base + 0.2 mM PIC-1.
Where [7] appears, read: Table 10: RBC + 20 mM quencher + 2 eq. base + 0.2 mM PIC-1.

Take `CC(=O)N[C@@H](CS)C(=O)O` [N-acetyl cys, N-acetyl cysteine]: the “pH of stock quencher” value in data set [1] (setting [5]) is recorded as 6. Besides, in data set [1] (setting [6]), the “pH of final mixture” value turned out to be 6.7.

For the compound `N[C@@H](CS)C(=O)O` [cysteine], in data set [2], the “Log S. marcescens reduction” value is given as 0.3 Log. Further, the “Log S. marcescens titer” value in data set [2] is given as 7.3 Log. The results for the “mean fluorescence” value in data set [3] (Table 9A: control) and in data set [3] (Table 9B: control) were 1.9 and 1.99, respectively. For the same compound, the “pH of final mixture” value in data set [1] (setting [6]) amounted to 7.4; in data set [1] (setting [7]) it was 7.8; in data set [1] (Table 10: RBC + 20 mM quencher, no base + 0.2 mM PIC-1), 6.5. In addition, in data set [4], the “Log S. epidermidis reduction” value is 0.1 Log. Besides, the “Log S. epidermidis titer” value in data set [4] is on record as 7.1 Log.

On to `CSCC[C@H](N)C(=O)O` [methionine, reference compound], for which the results for the “pH of stock quencher” value in data set [1] (setting [5]) and in data set [1] (600 mM in 8% dextrose + 2 eq. base) were 11.2 and 13.1, respectively. Also, the entries for the “pH of final mixture” value in data set [1] (setting [6]) and in data set [1] (setting [7]) were 7.5 and 8, respectively.
